# Source: ChEMBL document CHEMBL4715808, “Discovery of (1S,2R,3S,4S,5R,6R)-2-Amino-3-[(3,4-difluorophenyl)sulfanylmethyl]-4-hydroxy-bicyclo[3.1.0]hexane-2,6-dicarboxylic Acid Hydrochloride (LY3020371·HCl): A Potent, Metabotropic Glutamate 2/3 Receptor Antagonist with Antidepressant-Like Activity” (J Med Chem, 2016)
# Legend:
# [1] = target: T1, Metabotropic glutamate receptor 2 (Homo sapiens, UniProt Q14416); experiment: […] at mGlu2 (unknown origin)
# [2] = target: T1, Metabotropic glutamate receptor 2
# Description: Displacement of [3H]-LY459477 from recombinant human mGlu2 receptor expressed in hamster AV12 cell membranes co-expressing rat EAAT1 incubated for 90 mins by top count scintillation method
# [3] = target: T1, Metabotropic glutamate receptor 2; remark: listed apart in the source
# Description: Antagonist activity at human recombinant mGlu2 receptor stably expressed in golden hamster AV12 cells co-expressing rat EAAT1 assessed as reduction in DCG IV-induced inhibition of forskolin-stimulated cAMP accumulation preincubated for 20 mins followed by incubation with cAMP-d2 conjugate and anti-cAMP cryptate for 1 hr by HTRF assay
# [4] = target: T2, Metabotropic glutamate receptor 3 (Homo sapiens, UniProt Q14832); experiment: Antagonist activity at human recombinant mGlu3 receptor stably expressed in golden hamster AV12 cells co-expressing rat EAAT1 assessed as reduction in DCG IV-induced inhibition of forskolin-stimulated cAMP accumulation preincubated for 20 mins followed by incubation with cAMP-d2 conjugate and anti-cAMP cryptate for 1 hr by HTRF assay; type: functional, cell-based
# T2 sequence (Q14832 whole entry): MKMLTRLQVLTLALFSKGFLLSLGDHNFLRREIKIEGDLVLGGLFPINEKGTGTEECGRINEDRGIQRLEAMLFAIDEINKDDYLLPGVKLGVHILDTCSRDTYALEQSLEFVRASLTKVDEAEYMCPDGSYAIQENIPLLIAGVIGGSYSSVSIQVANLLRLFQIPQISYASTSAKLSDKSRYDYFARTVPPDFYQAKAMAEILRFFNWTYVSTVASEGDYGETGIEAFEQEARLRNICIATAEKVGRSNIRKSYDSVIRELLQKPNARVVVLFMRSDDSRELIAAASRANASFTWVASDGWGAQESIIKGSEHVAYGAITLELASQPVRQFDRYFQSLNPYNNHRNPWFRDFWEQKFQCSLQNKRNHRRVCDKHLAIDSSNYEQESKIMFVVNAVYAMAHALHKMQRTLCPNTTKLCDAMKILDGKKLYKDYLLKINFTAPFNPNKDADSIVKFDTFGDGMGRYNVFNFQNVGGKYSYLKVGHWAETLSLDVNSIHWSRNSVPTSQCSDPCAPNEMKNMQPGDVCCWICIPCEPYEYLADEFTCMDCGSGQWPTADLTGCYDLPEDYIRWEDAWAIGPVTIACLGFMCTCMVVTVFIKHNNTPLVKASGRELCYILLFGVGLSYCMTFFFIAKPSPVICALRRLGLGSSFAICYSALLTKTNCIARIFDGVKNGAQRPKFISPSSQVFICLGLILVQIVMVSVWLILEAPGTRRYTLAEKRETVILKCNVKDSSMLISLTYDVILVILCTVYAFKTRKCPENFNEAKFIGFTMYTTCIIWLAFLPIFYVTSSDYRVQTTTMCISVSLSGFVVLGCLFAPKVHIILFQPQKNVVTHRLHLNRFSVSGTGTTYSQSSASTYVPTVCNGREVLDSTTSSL
# [5] = target: T2, Metabotropic glutamate receptor 3; experiment: Displacement of [3H]-LY459477 from recombinant human mGlu3 receptor expressed in hamster AV12 cell membranes co-expressing rat EAAT1 incubated for 90 mins by top count scintillation method; set-up: species or system Cell membrane
# [6] = target: T2, Metabotropic glutamate receptor 3; experiment: […] at mGlu3 (unknown origin)
# T1 sequence (Q14416 whole entry): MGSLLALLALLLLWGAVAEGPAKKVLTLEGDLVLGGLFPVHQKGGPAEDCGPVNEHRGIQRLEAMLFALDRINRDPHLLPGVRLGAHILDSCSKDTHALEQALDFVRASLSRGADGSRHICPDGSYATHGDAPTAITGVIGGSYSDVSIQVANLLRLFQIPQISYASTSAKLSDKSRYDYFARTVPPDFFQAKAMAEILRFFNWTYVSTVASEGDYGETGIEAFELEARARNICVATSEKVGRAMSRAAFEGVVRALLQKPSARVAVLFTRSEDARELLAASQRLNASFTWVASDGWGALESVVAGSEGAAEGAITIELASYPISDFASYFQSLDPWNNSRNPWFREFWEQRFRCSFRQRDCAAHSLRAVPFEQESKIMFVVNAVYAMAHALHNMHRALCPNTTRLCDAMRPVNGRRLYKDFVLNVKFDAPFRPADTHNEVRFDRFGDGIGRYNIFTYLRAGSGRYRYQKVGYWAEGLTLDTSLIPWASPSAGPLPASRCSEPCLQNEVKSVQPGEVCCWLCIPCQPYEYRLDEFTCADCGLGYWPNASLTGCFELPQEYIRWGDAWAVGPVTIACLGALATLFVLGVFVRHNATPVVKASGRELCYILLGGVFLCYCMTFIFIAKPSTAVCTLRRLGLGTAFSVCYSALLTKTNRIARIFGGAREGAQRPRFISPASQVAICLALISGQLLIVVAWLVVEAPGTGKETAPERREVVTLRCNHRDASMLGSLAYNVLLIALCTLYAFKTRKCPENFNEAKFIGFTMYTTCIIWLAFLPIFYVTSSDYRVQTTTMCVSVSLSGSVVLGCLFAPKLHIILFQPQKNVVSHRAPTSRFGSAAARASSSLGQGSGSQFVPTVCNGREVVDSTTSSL
Structure (SMILES),IC50 [1] [µM],Ki [2] [µM],IC50 [3] [µM],IC50 [4] [µM],Ki [5] [µM],further results
N[C@@]1(C(=O)O)C[C@@H](O)[C@H]2[C@H](C(=O)O)[C@H]21,0.0086,–,–,–,–,–
N[C@]1(C(=O)O)[C@@H]2[C@@H](C(=O)O)[C@@H]2[C@@H](O)[C@@H]1CSc1ccccc1,–,–,–,2.16,0.238,–
N[C@@]1(C(=O)O)C[C@H](O)[C@H]2[C@H](C(=O)O)[C@H]21,0.0226,–,–,–,–,–
N[C@]1(C(=O)O)[C@@H]2[C@@H](C(=O)O)[C@@H]2[C@@H](O)[C@H]1CSc1ccccc1,–,–,–,0.547,0.026,–
N[C@]1(C(=O)O)[C@@H]2[C@@H](C(=O)O)[C@@H]2[C@H](O)[C@H]1CSc1ccc(F)cc1,–,0.0104,0.0202,0.0419,0.0068,–

# Second part, led by results:
IC50 [1] [µM],Ki [2] [µM],IC50 [3] [µM],IC50 [4] [µM],Ki [5] [µM],Structure (SMILES),further results
–,0.0052,0.0066,–,–,Cc1cc(SC[C@@H]2[C@@H](Sc3nc[nH]n3)[C@H]3[C@H](C(=O)O)[C@H]3[C@]2(N)C(=O)O)ccc1F,–
–,0.0089,0.0172,–,–,Cc1cc(SC[C@@H]2[C@@H](O)[C@H]3[C@H](C(=O)O)[C@H]3[C@]2(N)C(=O)O)ccc1F,–
–,0.0142,0.0276,–,–,Cc1ccc(SC[C@@H]2[C@@H](O)[C@H]3[C@H](C(=O)O)[C@H]3[C@]2(N)C(=O)O)cc1C,–
0.007,–,–,–,–,N[C@@]1(C(=O)O)CC[C@H]2[C@H](C(=O)O)[C@H]21,IC50 [6]: 0.0279 µM
–,–,–,0.11,–,N[C@@]1(C(=O)O)[C@H](Cc2ccc(F)c(Cl)c2)C[C@H]2[C@H](C(=O)O)[C@H]21,–
